The values that follow come from US5541187A, “6-heterocycyclyl pyrazolo[3,4-d]pyrimidin-4-ones and compositions and method of use thereof” (Sterling Winthrop Inc., priority 1993, dated 1996).

In the test the test system is cGMP-PDE I. Briefly: cGMP-PDE I inhibitory activity (cyclic nucleotide hydrolysis, isolated PDE isozyme). In kind it is biochemical, various animal species and man. The conditions noted are these: for IC50: values marked * are from two separate experimental runs. How it is done:
Multiple isozymic forms of cyclic nucleotide phosphodiesterase (PDE) have been identified in mammalian cells. […] Elevation of intracellular cGMP in vascular smooth muscle triggers a cascade of events that leads to a reduction in muscle tone while elevations in renal tubule cell cGMP stimulates natriuresis and diuresis. Vascular smooth muscle and renal cells contain a phosphodiesterase isozyme that has a low Km (1 μM) for the hydrolysis of cGMP. This isozyme has been referred to as the cGMP-PDE or cGMP-PDE I since it elutes from an anion-exchange sepharose resin in the first peak of PDE activity at a sodium acetate concentration between 150-200 mM. Thus inhibition of the cGMP-PDE isozyme is a viable subcellular mechanism by which increases in cGMP can produce a reduction in total peripheral resistance and a stimulation of natriuresis and diuresis. The development of cGMP-PDE inhibitors represents an approach for the discovery of agents useful for treating heart failure and hypertension. For example, compounds having high inhibitory potency for the cGMP-PDE are expected to lower blood pressure and induce natriuresis and diuresis.
The cGMP-PDE and other PDE isozymes were isolated from cardiovascular tissues (heart and aorta) of various animal species and man by anion-exchange and affinity chromatography as described by Silver et al., Sec. Messeng. Phos. 13:13-25, 1991; PDE activity, in the presence and absence of test compounds was determined essentially as described by Thompson et al., Adv. Cyclic Nucleotide Res. 10:69-92. To determine the potency and selectivity of compounds as PDE inhibitors, compounds are screened for their effect on cyclic nucleotide hydrolysis at 10 μM. If ≥50% inhibition of PDE activity is observed, an IC50 value (concentration of compound causing 50% reduction in PDE activity) and corresponding 95% confidence intervals are generated. The IC50 values are calculated from concentration-response curves as described by Tallarida and Murray, Manual of Pharmacologic Calculations with Computer Programs, Procedure 8, Graded Dose-response, pp. 14-19, Springer-Verlag, N.Y., 1981.

Structures can show the parent of a compound that is named as a salt.

Compound `Cc1[nH]n(C2CCCO2)c2nc(-c3ccncc3)nc(=O)c1-2` (stereo not drawn) [Example 104, 1-(2-tetrahydrofuranyl)-3-methyl-6-(4-pyridyl)-pyrazolo-[3,4-d]pyrimidin-4-one] had an IC50 of 12400 nM.
The same measure, in the same setting: next, `Cc1[nH]n(Cc2ccc([N+](=O)[O-])cc2)c2nc(-c3ccncc3)nc(=O)c1-2` [Example 105, 1-(4-Nitrophenylmethyl)-3-methyl-6-(4-pyridyl)pyrazolo[3,4-d]pyrimidin-4-one]: 6700 nM.
`Cc1[nH]n(Cc2cc([N+](=O)[O-])ccc2Cl)c2nc(-c3ccncc3)nc(=O)c1-2` [Example 106, 1-(2-Chloro-5-nitrophenylmethyl)-3-methyl-6-(4-pyridyl)pyrazolo[3,4-d]pyrimidin-4-one]: the “Percent Inhibition cGMP-PDE I” value by setting is: (1 μM) 24%; (10 μM) 63%.
On to `Cc1[nH]n(Cc2cc(NS(=O)(=O)c3cccc4cccnc34)ccc2Cl)c2nc(-c3ccncc3)nc(=O)c1-2` [Example 108, 1-[2-Chloro-5-((8-quinolinylsulfonyl)amino)phenylmethyl]-3-methyl-6-(4-pyridyl)-pyrazolo[3,4-d]pyrimidin-4-one], for which the “Percent Inhibition cGMP-PDE I” value reads like this: (1 μM) 38%; (10 μM) 86%.
Consider `Cc1nn(C2CCCC2)c2nc(C3CCNCC3)[nH]c(=O)c12` [Example 109, 1-Cyclopentyl-3-methyl-6-(4-piperidinyl)-pyrazolo[3,4-d]-pyrimidin-4-one monohydrochloride. 1/2 hydrate], for which the “Percent Inhibition cGMP-PDE I” value came out at 7% (1 μM) and 13% (10 μM).
Regarding `Cc1[nH]n(Cc2ccc(C(N)=O)cc2)c2nc(-c3ccncc3)nc(=O)c1-2` [Example 110, 1-(4-Carbamoylphenylmethyl)-3-methyl-6-(4-pyridyl)pyrazolo[3,4-d]pyrimidin-4-one], the “Percent Inhibition cGMP-PDE I” value is, setting by setting: (1 μM) 23%; (10 μM) 74%.
With `Cc1[nH]n(Cc2ccc(C(=O)O)cc2)c2nc(-c3ccncc3)nc(=O)c1-2` [Example 111, 1-(4-Carboxylphenylmethyl)-3-methyl-6-(4-pyridyl)-pyrazolo[3,4-d]pyrimidin-4-one], the “Percent Inhibition cGMP-PDE I” value (1 μM) was 0% and the “Percent Inhibition cGMP-PDE I” value (10 μM) is recorded as 24%.
As for `Cc1[nH]n(Cc2cccc(C(=O)O)c2)c2nc(-c3ccncc3)nc(=O)c1-2` [Example 112, 1-(3-Carboxyphenylmethyl)-3-methyl-6-(4-pyridyl)-pyrazolo[3,4-d]pyrimidin-4-one], the “Percent Inhibition cGMP-PDE I” value was determined as 4% (1 μM) and 52% (10 μM).
`Cc1[nH]n(Cc2cccc(C(N)=O)c2)c2nc(-c3ccncc3)nc(=O)c1-2` [Example 113, 1-(3-Carbamoylphenylmethyl)-3-methyl-6-(4-pyridyl) pyrazolo[3,4-d]pyrimidin-4-one]: the “Percent Inhibition cGMP-PDE I” value (1 μM) turned out to be 0% and the “Percent Inhibition cGMP-PDE I” value (10 μM) is recorded as 48%.
In the case of `CCc1nn(C2CCCC2)c2nc(-c3cccn4ccnc34)[nH]c(=O)c12` [Example 114c, 1-cyclopentyl-3-ethyl-6-(8-imidazo[1,2-a]pyridine)pyrazolo[3,4-d]pyrimidin-4-one methanesulfonate], the “Percent Inhibition cGMP-PDE I” value was 5% (1 μM) and 52% (10 μM).
On the same counts, the results for `CC(=O)N1CCC(c2nc3n(C4CCCC4)[nH]c(C)c-3c(=O)n2)CC1` [Example 115, 1-Cyclopentyl-3-methyl-6-(1-acetyl-4-piperidinyl)pyrazolo[3,4-d]pyrimidin-4-one] are 6% and 51%.
For `Cc1[nH]n(C2CCCC2)c2nc(C3CCN(C(=O)C(F)(F)F)CC3)nc(=O)c1-2` [Example 116, 1-Cyclopentyl-3-methyl-6-(1-trifluoroacetyl-4-piperidinyl)pyrazolo[3,4-d]pyrimidin-4-one], the “Percent Inhibition cGMP-PDE I” value (1 μM) came out at 34%.
On to `CCc1[nH]n(C2CCCC2)c2nc(-c3cc(C)nc(Cl)c3)nc(=O)c1-2` [Example 117, 1-Cyclopentyl-3-ethyl-6-(2-chloro-6-methyl-4-pyridyl)pyrazolo[3,4-d]pyrimidin-4-one], for which the “Percent Inhibition cGMP-PDE I” value reads like this: (1 μM) 11%; (10 μM) 22%.
`CCc1[nH]n(C2CCCC2)c2nc(-c3ccnc(C)c3)nc(=O)c1-2` [Example 118, 1-Cyclopentyl-3-ethyl-6-(2-methyl-4-pyridyl)pyrazolo[3,4-d]pyrimidin-4-one]: the IC50 came to 660 nM. Under “0.1 μM”, the “Percent Inhibition cGMP-PDE I” value is 22%. Moreover, the “Percent Inhibition cGMP-PDE I” value (1 μM) is recorded as 61%.
For `CCc1nn(C2CCCC2)c2nc(-c3cc(C)nc(-n4ccnc4)c3)[nH]c(=O)c12` [Example 120, 1-Cyclopentyl-3-ethyl-6-[2-(1-imidazolyl)-6-methyl-4-pyridyl]pyrazolo[3,4-d]pyrimidin-4-one-1/4 hydrate], the “Percent Inhibition cGMP-PDE I” value is, setting by setting: (0.1 μM) 16%; (1 μM) 60%.
The compound `CCc1[nH]n(C2CCCC2)c2nc(-c3ccnc(-n4ccnc4)c3)nc(=O)c1-2` [Example 121c, 1-Cyclopentyl-3-ethyl-6-[2-(1-imidazolyl)-4-pyridyl]pyrazolo[3,4-d]pyrimidin-4-one] gave an IC50 of 240 nM. Further, where the note is “0.1 μM”, the “Percent Inhibition cGMP-PDE I” value was determined as 11%. The “Percent Inhibition cGMP-PDE I” value (1 μM) was determined as 68%.
Turning to `CCc1[nH]n(C2CCCC2)c2nc(-n3ccnc3)nc(=O)c1-2` [Example 122d, 1-Cyclopentyl-3-ethyl-6-(1-imidazolyl)pyrazolo[3,4-d]pyrimidin-4-one], the “Percent Inhibition cGMP-PDE I” value (1 μM) is recorded as 16% and the “Percent Inhibition cGMP-PDE I” value (10 μM) is reported as 46%.
`CCc1[nH]n(C2CCCC2)c2nc(-c3ccnc(Cl)c3)nc(=O)c1-2` [Example 125b, 1-Cyclopentyl-3-ethyl-6-(2-chloro-4-pyridyl)pyrazolo[3,4-d]pyrimidin-4-one] gave an IC50 of 580 nM. The “Percent Inhibition cGMP-PDE I” value (0.1 μM) worked out at 27%. For the same compound, the “Percent Inhibition cGMP-PDE I” value (1 μM) is on record as 59%.
With `Cc1[nH]n(C2CCCC2)c2nc(-c3cc[nH]c(=O)c3)nc(=O)c1-2` [Example 126b, 1-Cyclopentyl-3-methyl-6-(2-oxo-4-pyridyl)pyrazolo[3,4-d]pyrimidin-4-one], the “Percent Inhibition cGMP-PDE I” value amounted to 0% (0.1 μM) and 32% (1 μM).
In the same order, the values of `CCc1[nH]n(C2CCCC2)c2nc(-c3ccnc(N4CCOCC4)c3)nc(=O)c1-2` [Example 129c, 1-Cyclopentyl-3-ethyl-6-(2-(4-morpholinyl)-4-pyridyl)pyrazolo[3,4-d]pyrimidin-4-one] are 35% and 64%.
As for `CCc1[nH]n(C2CCCC2)c2nc(-c3ccncc3OC3CCC3)nc(=O)c1-2` [Example 130B, 1-Cyclopentyl-3-ethyl-6-(3-cyclobutyloxy-4-pyridyl)pyrazolo[3,4-d]pyrimidin-4-one], the “Percent Inhibition cGMP-PDE I” value (0.01 μM) was found to be 91%.
Regarding `CCc1[nH]n(C2CCCC2)c2nc(-c3ccncc3OCCOC)nc(=O)c1-2` [Example 131b, 1-Cyclopentyl-3-ethyl-6-(3-(2-methoxyethoxy)-4-pyridyl)pyrazolo[3,4-d]pyrimidin-4-one], the “Percent Inhibition cGMP-PDE I” value (0.01 μM) was 22%, the “Percent Inhibition cGMP-PDE I” value (0.1 μM) was 61% and the “Percent Inhibition cGMP-PDE I” value (1 μM) is reported as 86%.
In the case of `CCCOc1cnccc1-c1nc2n(C3CCCC3)[nH]c(CC)c-2c(=O)n1` [Example 133c, 1-Cyclopentyl-3-ethyl-6-(3-propoxy-4-pyridyl)pyrazolo[3,4-d]pyrimidin-4-one], the “Percent Inhibition cGMP-PDE I” value (0.01 μM) is recorded as 82%.
